Experimental data from ChEMBL document CHEMBL3991601, “The target landscape of clinical kinase drugs” (Science, 2017).
Calls of active or inactive are those of the source.

How the values were obtained:
[1] = target: Serine/threonine-protein kinase pim-2 (Homo sapiens, UniProt Q9P1W9)
[2] = target: Cyclin-dependent kinase 17 (Homo sapiens, UniProt Q00537)
[3] = target: High affinity nerve growth factor receptor (Homo sapiens, UniProt P04629)
Ephrin type-A receptor 1 = target: T1, Ephrin type-A receptor 1 (Homo sapiens, UniProt P21709)
T1 sequence (P21709 whole entry): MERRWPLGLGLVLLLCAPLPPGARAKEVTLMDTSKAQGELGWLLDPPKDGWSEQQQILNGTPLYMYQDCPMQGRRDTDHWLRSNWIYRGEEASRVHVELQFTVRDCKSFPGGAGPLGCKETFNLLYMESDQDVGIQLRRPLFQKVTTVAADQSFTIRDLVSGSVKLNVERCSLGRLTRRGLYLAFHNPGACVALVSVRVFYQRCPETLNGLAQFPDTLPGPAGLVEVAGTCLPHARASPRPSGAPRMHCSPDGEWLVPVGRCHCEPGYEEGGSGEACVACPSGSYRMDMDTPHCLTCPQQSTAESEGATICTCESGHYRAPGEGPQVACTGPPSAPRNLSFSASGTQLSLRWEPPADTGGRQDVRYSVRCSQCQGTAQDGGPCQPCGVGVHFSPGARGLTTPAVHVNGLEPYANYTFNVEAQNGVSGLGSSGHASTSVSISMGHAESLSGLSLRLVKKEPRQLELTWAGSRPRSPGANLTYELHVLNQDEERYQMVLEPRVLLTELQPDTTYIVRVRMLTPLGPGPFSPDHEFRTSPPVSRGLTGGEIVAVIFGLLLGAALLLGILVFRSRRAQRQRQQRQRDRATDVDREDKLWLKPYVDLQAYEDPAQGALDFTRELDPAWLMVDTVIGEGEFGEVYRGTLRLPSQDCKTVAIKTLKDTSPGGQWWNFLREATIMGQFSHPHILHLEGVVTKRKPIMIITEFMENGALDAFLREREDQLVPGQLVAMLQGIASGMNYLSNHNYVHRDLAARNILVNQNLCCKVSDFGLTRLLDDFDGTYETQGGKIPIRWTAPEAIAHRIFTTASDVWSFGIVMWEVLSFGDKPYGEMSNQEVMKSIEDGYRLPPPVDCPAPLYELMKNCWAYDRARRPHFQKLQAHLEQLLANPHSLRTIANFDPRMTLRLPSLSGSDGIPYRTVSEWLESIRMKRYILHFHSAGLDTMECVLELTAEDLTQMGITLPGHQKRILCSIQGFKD

UMP-CMP kinase = target: T2, UMP-CMP kinase (Homo sapiens, UniProt P30085)
T2 sequence (P30085 whole entry): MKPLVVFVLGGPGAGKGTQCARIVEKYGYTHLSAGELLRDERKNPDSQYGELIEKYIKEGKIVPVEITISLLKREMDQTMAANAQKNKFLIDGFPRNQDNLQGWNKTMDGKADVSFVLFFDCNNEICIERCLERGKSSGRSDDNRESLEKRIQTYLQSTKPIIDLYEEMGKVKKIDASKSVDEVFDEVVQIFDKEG

Myosin-10 = Myosin-10 (Homo sapiens, UniProt P35580)
Chain of Myosin-10 (P35580 whole entry): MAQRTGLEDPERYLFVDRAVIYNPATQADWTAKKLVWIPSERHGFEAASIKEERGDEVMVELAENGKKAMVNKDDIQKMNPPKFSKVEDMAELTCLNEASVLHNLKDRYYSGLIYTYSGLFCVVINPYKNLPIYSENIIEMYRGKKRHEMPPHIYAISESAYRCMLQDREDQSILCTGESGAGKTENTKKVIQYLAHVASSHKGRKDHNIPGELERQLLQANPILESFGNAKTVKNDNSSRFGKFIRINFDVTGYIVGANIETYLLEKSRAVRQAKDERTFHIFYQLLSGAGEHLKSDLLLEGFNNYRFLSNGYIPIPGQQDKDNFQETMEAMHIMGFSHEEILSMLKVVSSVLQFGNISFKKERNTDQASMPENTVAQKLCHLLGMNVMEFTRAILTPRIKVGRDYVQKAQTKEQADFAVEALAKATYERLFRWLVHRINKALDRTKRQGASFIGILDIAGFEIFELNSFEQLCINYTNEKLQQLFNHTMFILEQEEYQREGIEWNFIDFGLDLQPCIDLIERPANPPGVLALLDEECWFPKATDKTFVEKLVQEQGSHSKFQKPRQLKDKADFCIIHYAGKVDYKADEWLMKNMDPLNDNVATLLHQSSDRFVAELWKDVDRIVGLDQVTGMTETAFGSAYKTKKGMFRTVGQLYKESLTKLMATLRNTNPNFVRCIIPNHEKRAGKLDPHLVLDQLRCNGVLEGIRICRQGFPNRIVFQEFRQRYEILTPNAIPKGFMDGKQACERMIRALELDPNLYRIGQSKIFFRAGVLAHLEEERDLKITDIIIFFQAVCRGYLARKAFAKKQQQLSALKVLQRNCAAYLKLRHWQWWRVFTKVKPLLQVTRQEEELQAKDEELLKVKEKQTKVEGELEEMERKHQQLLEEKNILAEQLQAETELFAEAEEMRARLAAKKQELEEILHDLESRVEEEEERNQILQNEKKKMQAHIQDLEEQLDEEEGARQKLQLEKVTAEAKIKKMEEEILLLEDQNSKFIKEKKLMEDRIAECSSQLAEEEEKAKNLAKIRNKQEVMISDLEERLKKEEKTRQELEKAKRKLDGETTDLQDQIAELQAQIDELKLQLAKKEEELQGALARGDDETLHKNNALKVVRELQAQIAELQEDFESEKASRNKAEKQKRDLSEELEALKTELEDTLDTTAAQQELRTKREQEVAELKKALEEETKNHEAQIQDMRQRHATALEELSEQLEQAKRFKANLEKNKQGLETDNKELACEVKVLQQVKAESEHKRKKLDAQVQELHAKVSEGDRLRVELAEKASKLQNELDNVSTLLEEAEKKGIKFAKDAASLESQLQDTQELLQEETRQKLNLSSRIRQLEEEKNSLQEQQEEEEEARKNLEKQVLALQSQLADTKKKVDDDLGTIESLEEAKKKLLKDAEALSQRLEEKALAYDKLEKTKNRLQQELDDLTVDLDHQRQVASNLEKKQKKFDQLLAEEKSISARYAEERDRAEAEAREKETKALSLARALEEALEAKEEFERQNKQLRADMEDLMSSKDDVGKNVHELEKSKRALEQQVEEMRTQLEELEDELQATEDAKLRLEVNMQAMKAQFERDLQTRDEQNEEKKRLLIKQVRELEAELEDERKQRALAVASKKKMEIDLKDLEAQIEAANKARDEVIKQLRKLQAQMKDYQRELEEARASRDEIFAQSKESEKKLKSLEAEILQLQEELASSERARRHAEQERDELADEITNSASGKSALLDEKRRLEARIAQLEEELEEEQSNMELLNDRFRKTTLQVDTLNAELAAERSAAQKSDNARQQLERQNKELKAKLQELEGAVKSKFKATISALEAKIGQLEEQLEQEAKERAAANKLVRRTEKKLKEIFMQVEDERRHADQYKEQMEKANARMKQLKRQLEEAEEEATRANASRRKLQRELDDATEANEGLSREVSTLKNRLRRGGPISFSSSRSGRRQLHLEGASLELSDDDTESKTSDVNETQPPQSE

[4] = target: T3, Phosphatidylinositol 5-phosphate 4-kinase type-2 alpha (Homo sapiens, UniProt P48426)
T3 sequence (P48426 whole entry): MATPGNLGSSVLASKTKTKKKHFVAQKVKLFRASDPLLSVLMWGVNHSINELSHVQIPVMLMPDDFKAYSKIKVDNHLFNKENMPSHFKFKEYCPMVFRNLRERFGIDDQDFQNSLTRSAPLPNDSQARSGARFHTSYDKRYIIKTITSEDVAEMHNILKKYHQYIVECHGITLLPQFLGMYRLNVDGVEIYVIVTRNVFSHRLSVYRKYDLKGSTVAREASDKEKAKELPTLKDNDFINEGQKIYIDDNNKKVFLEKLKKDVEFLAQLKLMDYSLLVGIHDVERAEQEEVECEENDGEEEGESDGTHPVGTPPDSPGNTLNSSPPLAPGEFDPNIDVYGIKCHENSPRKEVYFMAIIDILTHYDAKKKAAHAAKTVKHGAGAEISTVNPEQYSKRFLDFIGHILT

[5] = target: G protein-coupled receptor kinase 6 (Homo sapiens, UniProt P43250)
Chain of G protein-coupled receptor kinase 6 (P43250 whole entry): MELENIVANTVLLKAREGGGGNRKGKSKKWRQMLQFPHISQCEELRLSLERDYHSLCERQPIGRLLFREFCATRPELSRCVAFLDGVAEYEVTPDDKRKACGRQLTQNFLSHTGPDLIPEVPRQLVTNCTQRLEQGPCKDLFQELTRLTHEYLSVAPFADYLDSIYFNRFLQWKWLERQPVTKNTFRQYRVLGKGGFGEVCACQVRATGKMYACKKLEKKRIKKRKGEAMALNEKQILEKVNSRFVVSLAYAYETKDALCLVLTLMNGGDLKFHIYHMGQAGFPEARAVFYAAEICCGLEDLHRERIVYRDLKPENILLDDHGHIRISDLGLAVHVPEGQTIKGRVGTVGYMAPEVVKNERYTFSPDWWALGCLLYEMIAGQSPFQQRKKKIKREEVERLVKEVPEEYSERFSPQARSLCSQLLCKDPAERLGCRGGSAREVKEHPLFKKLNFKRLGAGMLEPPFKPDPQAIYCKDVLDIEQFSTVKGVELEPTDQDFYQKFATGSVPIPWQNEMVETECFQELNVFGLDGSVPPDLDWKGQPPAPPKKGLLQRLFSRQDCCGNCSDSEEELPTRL

[6] = target: T4, Dual specificity mitogen-activated protein kinase kinase 4 (Homo sapiens, UniProt P45985)
T4 sequence (P45985 whole entry): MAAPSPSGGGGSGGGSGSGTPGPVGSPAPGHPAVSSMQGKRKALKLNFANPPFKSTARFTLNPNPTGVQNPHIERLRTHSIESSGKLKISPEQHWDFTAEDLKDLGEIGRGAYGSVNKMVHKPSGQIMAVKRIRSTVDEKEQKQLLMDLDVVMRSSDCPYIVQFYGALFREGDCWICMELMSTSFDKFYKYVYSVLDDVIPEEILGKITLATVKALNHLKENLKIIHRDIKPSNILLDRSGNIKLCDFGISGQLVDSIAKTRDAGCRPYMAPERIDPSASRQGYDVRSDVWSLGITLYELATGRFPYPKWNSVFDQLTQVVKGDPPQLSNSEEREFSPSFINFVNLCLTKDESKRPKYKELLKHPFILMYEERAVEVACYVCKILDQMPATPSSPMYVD

[7] = target: Serine/threonine-protein kinase 24 (Homo sapiens, UniProt Q9Y6E0)
[8] = target: Dual specificity protein kinase CLK4 (Homo sapiens, UniProt Q9HAZ1)
Chain of Dual specificity protein kinase CLK4 (Q9HAZ1 whole entry): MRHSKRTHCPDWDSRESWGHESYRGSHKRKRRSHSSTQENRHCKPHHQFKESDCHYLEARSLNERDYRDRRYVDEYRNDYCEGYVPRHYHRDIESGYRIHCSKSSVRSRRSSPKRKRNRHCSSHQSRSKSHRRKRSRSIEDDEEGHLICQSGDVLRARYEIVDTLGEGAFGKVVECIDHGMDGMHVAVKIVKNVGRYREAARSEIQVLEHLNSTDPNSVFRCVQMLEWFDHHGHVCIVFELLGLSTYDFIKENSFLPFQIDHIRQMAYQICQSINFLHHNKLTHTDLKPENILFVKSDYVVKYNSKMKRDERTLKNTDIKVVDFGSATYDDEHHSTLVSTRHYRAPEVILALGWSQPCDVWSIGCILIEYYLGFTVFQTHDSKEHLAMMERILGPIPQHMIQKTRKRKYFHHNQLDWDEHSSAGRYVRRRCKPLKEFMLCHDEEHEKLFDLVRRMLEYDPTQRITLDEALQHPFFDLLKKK
Also: in the data inactive means no Kd found up to 30 µM.

Chain of High affinity nerve growth factor receptor (P04629 whole entry): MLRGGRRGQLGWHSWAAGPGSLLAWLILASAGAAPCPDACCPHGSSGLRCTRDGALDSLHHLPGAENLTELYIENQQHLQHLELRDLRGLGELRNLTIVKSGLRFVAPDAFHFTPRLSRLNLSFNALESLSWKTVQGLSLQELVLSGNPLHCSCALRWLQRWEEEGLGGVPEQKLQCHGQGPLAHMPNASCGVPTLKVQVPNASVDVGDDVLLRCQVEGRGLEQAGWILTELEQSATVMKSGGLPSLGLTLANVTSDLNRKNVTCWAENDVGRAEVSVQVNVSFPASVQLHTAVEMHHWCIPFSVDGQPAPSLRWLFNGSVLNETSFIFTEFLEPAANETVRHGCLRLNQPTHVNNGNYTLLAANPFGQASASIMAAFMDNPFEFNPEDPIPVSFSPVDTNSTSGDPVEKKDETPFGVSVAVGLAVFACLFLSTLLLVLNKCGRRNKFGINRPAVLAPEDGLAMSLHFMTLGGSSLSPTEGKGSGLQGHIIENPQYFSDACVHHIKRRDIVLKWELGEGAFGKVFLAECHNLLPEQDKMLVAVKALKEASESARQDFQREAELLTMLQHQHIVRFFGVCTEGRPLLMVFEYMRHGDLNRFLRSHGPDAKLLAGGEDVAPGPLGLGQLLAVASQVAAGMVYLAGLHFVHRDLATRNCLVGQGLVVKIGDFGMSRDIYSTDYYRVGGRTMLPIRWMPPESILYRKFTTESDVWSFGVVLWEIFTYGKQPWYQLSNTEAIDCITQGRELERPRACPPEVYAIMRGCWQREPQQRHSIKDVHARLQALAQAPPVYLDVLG
Chain of Cyclin-dependent kinase 17 (Q00537 whole entry): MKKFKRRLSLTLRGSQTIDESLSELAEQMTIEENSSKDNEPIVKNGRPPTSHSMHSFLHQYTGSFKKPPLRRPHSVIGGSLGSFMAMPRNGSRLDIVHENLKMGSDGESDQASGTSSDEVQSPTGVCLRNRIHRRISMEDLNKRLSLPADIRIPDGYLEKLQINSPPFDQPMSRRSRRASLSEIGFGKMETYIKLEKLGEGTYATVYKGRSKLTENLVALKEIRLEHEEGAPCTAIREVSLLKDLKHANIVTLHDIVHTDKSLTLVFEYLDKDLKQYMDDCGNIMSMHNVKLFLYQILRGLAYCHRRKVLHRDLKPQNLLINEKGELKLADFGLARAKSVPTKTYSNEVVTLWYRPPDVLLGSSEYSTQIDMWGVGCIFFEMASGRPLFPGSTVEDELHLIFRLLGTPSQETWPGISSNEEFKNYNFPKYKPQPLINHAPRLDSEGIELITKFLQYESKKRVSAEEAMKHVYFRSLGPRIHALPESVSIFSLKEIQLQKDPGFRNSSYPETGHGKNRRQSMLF
Chain of Serine/threonine-protein kinase pim-2 (Q9P1W9 whole entry): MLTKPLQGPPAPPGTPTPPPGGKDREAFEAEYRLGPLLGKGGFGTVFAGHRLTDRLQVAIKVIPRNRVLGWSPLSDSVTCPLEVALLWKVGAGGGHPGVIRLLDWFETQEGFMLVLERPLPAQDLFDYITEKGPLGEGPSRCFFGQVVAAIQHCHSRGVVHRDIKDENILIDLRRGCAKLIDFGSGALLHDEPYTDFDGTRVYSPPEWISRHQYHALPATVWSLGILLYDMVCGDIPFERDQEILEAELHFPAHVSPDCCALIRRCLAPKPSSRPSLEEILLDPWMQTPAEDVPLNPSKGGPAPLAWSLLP

| Compound | Kd [1] | Kd [2] | Kd [3] | Kd (Ephrin type-A receptor 1) | Kd (UMP-CMP kinase) | Kd (Myosin-10) | Kd [4] | Kd [5] | Kd [6] | Kd [7] | Kd [8] |
| --- | --- | --- | --- | --- | --- | --- | --- | --- | --- | --- | --- |
| Cn1ncc(Cl)c1-c1cc(C(=O)N[C@H](CN)Cc2cccc(F)c2)sc1Cl [AFURESERTIB] | > 30 µM (inactive) | > 30 µM (inactive) | > 30 µM (inactive) | > 30 µM (inactive) |  |  |  |  |  |  |  |
| Cc1cn(-c2cc(NC(=O)c3ccc(C)c(Nc4nccc(-c5cccnc5)n4)c3)cc(C(F)(F)F)c2)cn1 [NILOTINIB] |  |  |  |  | > 30 µM (inactive) | > 30 µM (inactive) | > 30 µM (inactive) | > 30 µM (inactive) |  |  |  |
| CCc1cnn2c(NCc3ccc[n+]([O-])c3)cc(N3CCCC[C@H]3CCO)nc12 [DINACICLIB] | > 30 µM (inactive) |  |  | > 30 µM (inactive) | > 30 µM (inactive) | > 30 µM (inactive) | > 30 µM (inactive) | > 30 µM (inactive) | > 30 µM (inactive) | > 30 µM (inactive) |  |
| CN1CC[C@@H](c2c(O)cc(O)c3c(=O)cc(-c4ccccc4Cl)oc23)[C@@H]1CO | > 30 µM (inactive) | > 30 µM (inactive) | > 30 µM (inactive) | > 30 µM (inactive) | > 30 µM (inactive) |  |  | > 30 µM (inactive) |  | > 30 µM (inactive) | > 30 µM (inactive) |
| COc1cc(N2CCC(N3CCN(C)CC3)CC2)ccc1Nc1ncnc(Nc2ccccc2S(=O)(=O)C(C)C)n1 [ASP-3026] | > 30 µM (inactive) | > 30 µM (inactive) | > 30 µM (inactive) |  |  |  |  | > 30 µM (inactive) |  | > 30 µM (inactive) | > 30 µM (inactive) |
| Cc1ccc(S(=O)(=O)Nc2nc3ccccc3nc2Nc2ccc3nsnc3c2)cc1 |  | > 30 µM (inactive) | > 30 µM (inactive) | > 30 µM (inactive) |  | > 30 µM (inactive) | > 30 µM (inactive) |  |  | > 30 µM (inactive) | > 30 µM (inactive) |
| CN1CCN(c2ccc3nc(-c4c(N)c5c(F)cccc5[nH]c4=O)[nH]c3c2)CC1 [DOVITINIB] |  |  |  |  |  | > 30 µM (inactive) | > 30 µM (inactive) | > 30 µM (inactive) |  |  |  |
| CN1CCC(COc2cnc(-c3cccc(Cn4nc(-c5cccc(C#N)c5)ccc4=O)c3)nc2)CC1 [TEPOTINIB] |  | > 30 µM (inactive) | > 30 µM (inactive) | > 30 µM (inactive) | > 30 µM (inactive) |  | > 30 µM (inactive) | > 30 µM (inactive) | > 30 µM (inactive) |  |  |
| CCn1c(-c2nonc2N)nc2c(C#CC(C)(C)O)ncc(OC[C@H]3CCCNC3)c21 [GSK-690693] |  |  |  |  | > 30 µM (inactive) |  |  |  |  |  |  |

Next, values leading:

| Kd [1] | Kd [2] | Kd [3] | Kd (Ephrin type-A receptor 1) | Kd (UMP-CMP kinase) | Kd (Myosin-10) | Kd [4] | Kd [5] | Kd [6] | Kd [7] | Kd [8] | Compound |
| --- | --- | --- | --- | --- | --- | --- | --- | --- | --- | --- | --- |
|  |  | > 30 µM (inactive) |  |  | > 30 µM (inactive) |  |  |  | > 30 µM (inactive) |  | C1=C/COCc2cc(ccc2OCCN2CCCC2)Nc2nccc(n2)-c2cccc(c2)COC/1 [PACRITINIB] |
| > 30 µM (inactive) | > 30 µM (inactive) | > 30 µM (inactive) | 0.015 µM |  |  | > 30 µM (inactive) | > 30 µM (inactive) | > 30 µM (inactive) | > 30 µM (inactive) | > 30 µM (inactive) | CNC(=O)CN1CCC(Oc2cc3c(Nc4cccc(Cl)c4F)ncnc3cc2OC)CC1 [SAPITINIB] |
|  |  |  |  |  |  | 7.02 µM | > 30 µM (inactive) |  |  |  | Nc1nc(N)c2nc(-c3cccc(O)c3)c(-c3cccc(O)c3)nc2n1 [TG100-115] |
| > 30 µM (inactive) | > 30 µM (inactive) |  | > 30 µM (inactive) | > 30 µM (inactive) | > 30 µM (inactive) | > 30 µM (inactive) | > 30 µM (inactive) | > 30 µM (inactive) | > 30 µM (inactive) | > 30 µM (inactive) | COc1cc2nccc(Oc3ccc(NC(=O)Nc4cc(C)on4)c(Cl)c3)c2cc1OC [TIVOZANIB] |
|  | > 30 µM (inactive) |  |  | > 30 µM (inactive) |  | > 30 µM (inactive) |  |  | > 30 µM (inactive) | > 30 µM (inactive) | C[C@@H](c1ccc2nccn2c1)n1nnc2ncc(-c3cnn(C)c3)nc21 [SAVOLITINIB] |
| > 30 µM (inactive) |  | > 30 µM (inactive) | > 30 µM (inactive) |  |  | > 30 µM (inactive) | > 30 µM (inactive) | > 30 µM (inactive) | > 30 µM (inactive) | > 30 µM (inactive) | CN(C)C(=O)c1cc2cnc(Nc3ccc(N4CCNCC4)cn3)nc2n1C1CCCC1 [RIBOCICLIB] |
